Reference: patent publication US12344610B2, “APOL1 inhibitors and methods of use” (Maze Therapeutics, Inc., priority 2022, dated 2025)

Tests used:
Type in all cases: cell-based
[1] = tested on: Trypanosoma brucei Lister 427 VSG221 with APOL1 G1 recombinant protein; assay: APOL1 G1 trypanosome cell rescue assay (Example B5); conditions: Trypanosoma brucei, 20 h, read-out: APOL1 G1 Trypanosome Rescue EC50, Trypanosoma brucei Lister 427 VSG221 with APOL1 G1 recombinant protein, 20 hours, CellTiter-Glo; geometric mean of at least 2 assay runs; † = single assay run
How it was run: (§1)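 Luminescent ATP read-out (CellTiter-Glo) of trypanosome viability after 20 h at 37° C. Bloodstream T. brucei Lister 427 VSG221, 250/well in modified HMI-9, were exposed to recombinant mature APOL1 (aa 28-398) from a 2 μg/mL addition, plus compound in 11-point 2-fold series.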

[2] = tested on: Trypanosoma brucei Lister 427 VSG221 with APOL1 G2 recombinant protein; assay: APOL1 G2 trypanosome cell rescue assay (Example B5); conditions: Trypanosoma brucei, 20 h, read-out: APOL1 G2 Trypanosome Rescue EC50, Trypanosoma brucei Lister 427 VSG221 with APOL1 G2 recombinant protein, 20 hours, CellTiter-Glo; geometric mean of at least 2 assay runs; † = single assay run
How it was run: as §1

[3] = tested on: Trypanosoma brucei Lister 427 VSG221 with APOL1 G0 recombinant protein; assay: APOL1 G0 trypanosome cell rescue assay (Example B5); conditions: Trypanosoma brucei, 20 h, read-out: APOL1 G0 Trypanosome Rescue EC50, Trypanosoma brucei Lister 427 VSG221 with APOL1 G0 recombinant protein, 20 hours, CellTiter-Glo; geometric mean of at least 2 assay runs; † = single assay run
How it was run: as §1

[4] = tested on: HEK293 clonal cell line overexpressing APOL1 G1; assay: APOL1 G1 HEK293 cell rescue assay (Example B3); conditions: Homo sapiens, HEK293, HEK293 clonal line overexpressing APOL1 G1; geometric mean of at least 2 runs; † = single run; ¥ = concentration at 50% rescue estimated (no sigmoidal curve)
How it was run: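 Rescue of cell death caused by APOL1 G1 overexpression was measured in a clonal HEK293 line. Compounds were tested in duplicate on one plate, and EC50s were geometric means across at least two runs on different days. Some values are estimated 50%-rescue concentrations where curve fitting failed.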

Compound	EC50 [1] [nM]	EC50 [2] [nM]	EC50 [3] [nM]	EC50 [4] [nM]
O=C1CCc2cc(OCCN3CCC4(CC3)C(=O)Nc3ccc(Cl)cc34)ccc2N1[C@H]1C[C@@H](O)C1 [Compound 114, 5-chloro-1′-[2-({2-oxo-1-[(cis)-3-hydroxycyclobutyl]-1,2,3,4-tetrahydroquinolin-6-yl}oxy)ethyl]-1,2-dihydrospiro[indole-3,4′-piperidin]-2-one]	104	38	108	128
CN(c1c(F)cc(OCCN2CCC3(CC2)C(=O)Nc2ccc(Cl)cc23)cc1F)S(C)(=O)=O [Compound 127, N-[4-(2-{5-chloro-2-oxo-1,2-dihydrospiro[indole-3,4′-piperidin]-1′-yl}ethoxy)-2,6-difluorophenyl]-N-methylmethanesulfonamide]	83.9	29.4	64.9	61
CN(c1c(F)cc(OCCN2CCC3(CC2)C(=O)Nc2ccc(C#N)cc23)cc1F)S(C)(=O)=O [Compound 128, N-[4-(2-{5-cyano-2-oxo-1,2-dihydrospiro[indole-3,4′-piperidin]-1′-yl}ethoxy)-2,6-difluorophenyl]-N-methylmethanesulfonamide]	383	133	269	158
Cc1cc(OCCN2CCC3(CC2)C(=O)Nc2ccc(Cl)cc23)cc(C)c1S(C)(=O)=O [Compound 129, 5-chloro-1′-[2-(4-methanesulfonyl-3,5-dimethylphenoxy)ethyl]-1,2-dihydrospiro[indole-3,4′-piperidin]-2-one]	69.5	22.2	65.2	72.8
Cn1c(=O)oc2cc(OCCN3CCC4(CC3)C(=O)Nc3ccc(Cl)cc34)ccc21 [Compound 131, 5-chloro-1′-{2-[(3-methyl-2-oxo-2,3-dihydro-1,3-benzoxazol-6-yl)oxy]ethyl}-1,2-dihydrospiro[indole-3,4′-piperidin]-2-one]	176	47.8	132	186
Cn1c(=O)oc2cc(OCCN3CCC4(CC3)C(=O)Nc3ccc(C#N)cc34)ccc21 [Compound 132, 1′-{2-[(3-methyl-2-oxo-2,3-dihydro-1,3-benzoxazol-6-yl)oxy]ethyl}-2-oxo-1,2-dihydrospiro[indole-3,4′-piperidine]-5-carbonitrile]	731	180	525	685
CS(=O)(=O)C1(c2c(F)cc(OCCN3CCC4(CC3)C(=O)Nc3ccc(Cl)cc34)cc2F)COC1 [Compound 136, 5-chloro-1′-{2-[3,5-difluoro-4-(3-methanesulfonyloxetan-3-yl)phenoxy]ethyl}-1,2-dihydrospiro[indole-3,4′-piperidin]-2-one]	37.1	14.3	31.5	49.4
CC(c1c(F)cc(OCCN2CCC3(CC2)C(=O)Nc2ccc(C#N)cc23)cc1F)S(C)(=O)=O (stereo not shown) [Compound 137, 1′-{2-[3,5-difluoro-4-(1-methanesulfonylethyl)phenoxy]ethyl}-2-oxo-1,2-dihydrospiro[indole-3,4′-piperidine]-5-carbonitrile]	454	119	322	249
Cc1cc(OCCN2CCC3(CC2)C(=O)Nc2ccc(C#N)cc23)cnc1S(C)(=O)=O [Compound 140, 1′-{2-[(6-methanesulfonyl-5-methylpyridin-3-yl)oxy]ethyl}-2-oxo-1,2-dihydrospiro[indole-3,4′-piperidine]-5-carbonitrile]	653	164	408	600
CC(C)N1C(=O)Cc2cc(OCCN3CCC4(CC3)C(=O)Nc3ccc(C#N)cc34)ccc21 [Compound 144, 2-oxo-1′-(2-{[2-oxo-1-(propan-2-yl)-2,3-dihydro-1H-indol-5-yl]oxy}ethyl)-1,2-dihydrospiro[indole-3,4′-piperidine]-5-carbonitrile]	358	101	224	246
CC(C)N1C(=O)Cc2cc(OCCN3CCC4(CC3)C(=O)Nc3ccc(Cl)cc34)ccc21 [Compound 145, 5-chloro-1′-(2-{[2-oxo-1-(propan-2-yl)-2,3-dihydro-1H-indol-5-yl]oxy}ethyl)-1,2-dihydrospiro[indole-3,4′-piperidin]-2-one]	118	35.5	86.5	98.5
CN1Cc2cc(OCCN3CCC4(CC3)C(=O)Nc3ccc(Cl)cc34)ccc2C1=O [Compound 146, 5-chloro-1′-{2-[(2-methyl-1-oxo-2,3-dihydro-1H-isoindol-5-yl)oxy]ethyl}-1,2-dihydrospiro[indole-3,4′-piperidin]-2-one]	427	119	346	221
CN=S(C)(=O)c1ccc(OCCN2CCC3(CC2)C(=O)Nc2ccc(Cl)cc23)cc1 (stereo not shown) [Compound 147, 5-chloro-1′-(2-{4-[methyl(methylimino)oxo-λ^6-sulfanyl]phenoxy}ethyl)-1,2-dihydrospiro[indole-3,4′-piperidin]-2-one]	231	65.4	155	183
CN=S(C)(=O)c1ccc(OCCN2CCC3(CC2)C(=O)Nc2ccc(C#N)cc23)cc1 (stereo not shown) [Compound 150, 1′-(2-{4-[methyl(methylimino)oxo-λ^6-sulfanyl]phenoxy}ethyl)-2-oxo-1,2-dihydrospiro[indole-3,4′-piperidine]-5-carbonitrile]	2290	519	1440	1540
CN1CCc2cc(OCCN3CCC4(CC3)C(=O)Nc3ccc(Cl)cc34)ccc2S1(=O)=O [Compound 153, 6-(2-{5-chloro-2-oxo-1,2-dihydrospiro[indole-3,4′-piperidin]-1′-yl}ethoxy)-2-methyl-3,4-dihydro-2H-1λ^6,2-benzothiazine-1,1-dione]	66.7	25.6	52.2	96.2
CN1CCc2cc(OCCN3CCC4(CC3)C(=O)Nc3ccc(C#N)cc34)ccc2S1(=O)=O [Compound 154, 1′-{2-[(2-methyl-1,1-dioxo-3,4-dihydro-2H-1λ^6,2-benzothiazin-6-yl)oxy]ethyl}-2-oxo-1,2-dihydrospiro[indole-3,4′-piperidine]-5-carbonitrile]	569	160	328	252
CS(=O)(=O)c1ccc(OCCN2CCC3(CC2)C(=O)Nc2ccc(Cl)cc23)cc1Cl [Compound 155, 5-chloro-1′-[2-(3-chloro-4-methanesulfonylphenoxy)ethyl]-1,2-dihydrospiro[indole-3,4′-piperidin]-2-one]	36.1	9.65	25.9	67
CS(=O)(=O)c1ccc(OCCN2CCC3(CC2)C(=O)Nc2ccc(C#N)cc23)cc1Cl [Compound 156, 1′-[2-(3-chloro-4-methanesulfonylphenoxy)ethyl]-2-oxo-1,2-dihydrospiro[indole-3,4′-piperidine]-5-carbonitrile]	154	44.8	96.6	153
CC(C)(C#N)c1ccc(OCCN2CCC3(CC2)C(=O)Nc2ccc(C#N)cc23)cc1 [Compound 157, 1′-{2-[4-(1-cyano-1-methylethyl)phenoxy]ethyl}-2-oxo-1,2-dihydrospiro[indole-3,4′-piperidine]-5-carbonitrile]	142	45.1	109	152
CC1(S(=O)(=O)c2ccc(OCCN3CCC4(CC3)C(=O)Nc3ccc(Cl)cc34)cn2)COC1 [Compound 158, 5-chloro-1′-[2-({6-[(3-methyloxetan-3-yl)sulfonyl]pyridin-3-yl}oxy)ethyl]-1,2-dihydrospiro[indole-3,4′-piperidin]-2-one]	142	45.9	94.2	252
CS(=O)(=O)C1(c2ccc(OCCN3CCC4(CC3)C(=O)N(CCO)c3ccc(Cl)cc34)cc2)COC1 [Compound 160, 5-chloro-1-(2-hydroxyethyl)-1′-{2-[4-(3-methanesulfonyloxetan-3-yl)phenoxy]ethyl}-1,2-dihydrospiro[indole-3,4′-piperidin]-2-one]	156	42.3	109	244
Cc1cc(OCCN2CCC3(CC2)C(=O)Nc2ccc(Cl)cc23)cnc1S(C)(=O)=O [Compound 161, 5-chloro-1′-{2-[(6-methanesulfonyl-5-methylpyridin-3-yl)oxy]ethyl}-1,2-dihydrospiro[indole-3,4′-piperidin]-2-one]	107	33.3	76.3	135
